# Laboratory results taken from the NIST ThermoML archive (doi:10.1021/je300848z).
# ± gives the expanded uncertainty stated by the source.
# Conditions: Liquid; for vapor or sublimation pressure: Ebulliometric method (Recirculating still)
smiles,measurement,setting,value
"Cc1ccc(C)cc1 [1,4-dimethylbenzene]",vapor or sublimation pressure,379.85 K,40 ± 0.34 kPa
CCCCC(CC)CCl (centres undefined) [1-chloro-2-ethylhexane],vapor or sublimation pressure,371.05 K,9.9 ± 0.2 kPa
same,vapor or sublimation pressure,375.35 K,11.7 ± 0.2 kPa
same,vapor or sublimation pressure,385.85 K,17.1 ± 0.2 kPa
same,vapor or sublimation pressure,394.25 K,22.8 ± 0.2 kPa
same,vapor or sublimation pressure,399.5 K,27.1 ± 0.2 kPa
same,vapor or sublimation pressure,403.5 K,30.8 ± 0.2 kPa
same,vapor or sublimation pressure,405.85 K,33.2 ± 0.2 kPa
same,vapor or sublimation pressure,411.9 K,39.9 ± 0.2 kPa
same,vapor or sublimation pressure,412.05 K,40 ± 0.2 kPa
same,vapor or sublimation pressure,419.05 K,49.4 ± 0.3 kPa
same,vapor or sublimation pressure,425.2 K,59 ± 0.3 kPa
same,vapor or sublimation pressure,431.15 K,69.6 ± 0.3 kPa
same,vapor or sublimation pressure,436.65 K,80.7 ± 0.3 kPa
same,vapor or sublimation pressure,441.45 K,91.6 ± 0.3 kPa
same,vapor or sublimation pressure,445.4 K,101.3 ± 0.3 kPa
same,Normal boiling temperature,Equilibrium Still,172.2 ± 0.2 °C
CCCCC(CC)CO (centres undefined) [2-ethyl-1-hexanol],vapor or sublimation pressure,427.2 K,40 ± 0.34 kPa
CN1CCCC1=O [N-methylpyrrolidone],vapor or sublimation pressure,441.8 K,40 ± 0.34 kPa
